Counter-ions that a name gives are not always drawn.
Molecular target: T1, Human, recombinant dihydrofolate reductase (Homo sapiens, UniProt P00374)
T1 construct: purchased Sigma D6566
T1 sequence (P00374 1-187): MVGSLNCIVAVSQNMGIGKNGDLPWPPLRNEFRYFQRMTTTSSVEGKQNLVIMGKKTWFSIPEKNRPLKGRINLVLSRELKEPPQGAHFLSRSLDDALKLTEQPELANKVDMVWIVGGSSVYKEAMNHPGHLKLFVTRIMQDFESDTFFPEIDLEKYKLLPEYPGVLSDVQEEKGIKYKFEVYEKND
Assay: Human DHFR assay
Assay type: biochemical
Details: Table 1, read-out: hDHFR IC50
Experimental: The assay is an adaptation for 96-well plate format from Appleman et al. (Appleman, J R; Howell, E E; Kraut, J; Kuhl, M and Blakley, R L (1988) J. Biol. Chem. 263, 9187-9198). Human, recombinant dihydrofolate reductase (Sigma, D6566) was incubated along with test compounds ([…]) and NADPH (Sigma, N-7505) in 96-well plates. After a 10 min. pre-incubation at room temperature, dihydrofolic acid (Sigma, D7006) was added and the kinetic traces at 340 nm measured on a Spectra Max 190 plate reader at room temperature. Reaction rates were determined from the slopes of the linear portions of the progress curves. The final assay conditions were 0.014 units DHFR, 300 μM NADPH, 30 μM Dihydrofolic acid, 50 mM TRIS, pH 7.6, 100 mM NaCl and 1.25% DMSO. Each compound was measured in duplicates on every assay plate. Each assay plate contained 12 positive controls (DMSO only) and 12 negative controls (no dihydrofolic acid). All data was percent normalized with respect to controls and presented as percent inhibition. Inhibition data was analyzed using Prism and fit to a standard 4-parameter logistic equation to calculate IC50 values.

Structure (SMILES)	IC50 [nM]
Nc1nc(N)c2c(OCC3CCN(Cc4ccccc4F)CC3)cccc2n1 [Example-001]	20000 to 100000
Nc1nc(N)c2c(OCC3CCN(Cc4cccc(Cl)c4)CC3)cccc2n1 [Example-002, 5-[1-(3-chlorobenzyl)-piperidin-4-ylmethoxy]-quinazoline-2,4-diamine]	< 20000
Nc1nc(N)c2c(OCC3CCN(Cc4ccc(Cl)c(Cl)c4)CC3)cccc2n1 [Example-038]	< 20000

Same assay, conditions: Table 3, read-out: hDHFR IC50

Structure (SMILES)	IC50 [nM]
Nc1nc(N)c2c(OCC3CCN(c4ccccc4F)CC3)cccc2n1 [Examplc-155, 5-[1-(2-Fluorophenyl)piperidin-4-ylmethoxy]quinazoline-2,4-diamine]	< 20000

Same assay, conditions: Table 5, read-out: hDHFR IC50

Structure (SMILES)	IC50 [nM]
CC(C)(C)OC(=O)N1CCN(CCOc2cccc3nc(N)nc(N)c23)CC1 [Examplc-205, 4-[2-(2,4-Diamino-quinazolin-5-yloxy)-ethyl]-piperazine-1-carboxylic Acid tert-butyl Ester]	< 20000

Test system: SMN2 promoter
Assay: SMN2 promoter assay in NSC-34 cells (β-lactamase reporter)
Assay type: cell-based, mouse
Details: Mus musculus, Table 1, SMN2 promoter driving β-lactamase, 12 point dose curve, read-out: Promoter Assay EC50
From the text: All compounds were screened using an in vitro based SMN2 promoter assay. We used NSC-34 cells, a hybrid cell line between mouse spinal cord cells and mouse neuroblastoma cells. NSC-34 cells harbor an expression plasmid containing a 3.4 kb promoter fragment of the SMN2 gene driving β-lactamase expression.
[…] […] CCF2-AM diffuses across the plasma membrane and is converted into an active β-lactamase substrate by cytoplasmic esterase. […] The fold induction is proportional to the extent of β-lactamase produced and in turn proportional to SMN2 promoter activation for a given compound relative to vehicle (DMSO) control. […] These values are used to rank activities of the compounds and derive structure activity relationship.

Structure (SMILES)	EC50 [nM]
Nc1nc(N)c2c(OCC3CCN(Cc4cccc(Cl)c4)CC3)cccc2n1 [Example-002, 5-[1-(3-chlorobenzyl)-piperidin-4-ylmethoxy]-quinazoline-2,4-diamine]	< 1000
Nc1nc(N)c2c(OCC3CCN(Cc4cccc(C(=O)O)c4)CC3)cccc2n1 [Example-222, 3-[4-(2,4-Diamino-quinazolin-5-yloxymethyl)-piperidin-1-ylmethyl]-benzoic acid]	1000 to 5000
Nc1nc(N)c2c(OCC3CCN(Cc4ccc(C(=O)O)cc4)CC3)cccc2n1 [Example-223, 4-[4-(2,4-Diamino-quinazolin-5-yloxymethyl)-piperidin-1-ylmethyl]-benzoic Acid]	1000 to 5000

Same assay, conditions: Mus musculus, Table 3, SMN2 promoter driving β-lactamase, read-out: Promoter Assay EC50

Structure (SMILES)	EC50 [nM]
Nc1nc(N)c2c(OCC3CCN(c4ccccc4F)CC3)cccc2n1 [Examplc-155, 5-[1-(2-Fluorophenyl)piperidin-4-ylmethoxy]quinazoline-2,4-diamine]	< 1000
Nc1nc(N)c2c(OCC3CCN(c4ccccc4Cl)CC3)cccc2n1 [Example-163, 5-[1-(2-Chlorophenyl)piperidin-4-ylmethoxy]quinazoline-2,4-diamine]	< 1000

Same assay, conditions: Mus musculus, Table 4, SMN2 promoter driving β-lactamase, read-out: Promoter Assay EC50 for 2391.003C(P)

Structure (SMILES)	EC50 [nM]
Nc1nc(N)c2c(N3CCN(Cc4ccccc4)CC3)cccc2n1 [Example-169, 5-(4-Benzyl-piperazin-1-yl)-quinazoline-2,4-diamine]	1000 to 5000
Nc1nc(N)c2c(N3CCN(Cc4ccc(Cl)cc4)CC3)cccc2n1 [Example-173, 5-[4-(4-Chloro-benzyl)-piperazin-1-yl]-quinazoline-2,4-diamine]	< 1000
Nc1nc(N)c2c(N3CCN(Cc4ccccc4F)CC3)cccc2n1 [Example-176, 5-[4-(2-Fluoro-benzyl)-piperazin-1-yl]-quinazoline-2,4-diamine]	1000 to 5000
Nc1nc(N)c2c(N3CCN(Cc4ccc(F)cc4F)CC3)cccc2n1 [Example-177, 5-[4-(2,4-Difluoro-benzyl)-piperazin-1-yl]-quinazoline-2,4-diamine]	< 1000
Nc1nc(N)c2c(N3CCN(Cc4ccc5c(c4)OCO5)CC3)cccc2n1 [Example-182, 5-(4-Benzo[1,3]dioxol-5-ylmethyl-piperazin-1-yl)-quinazoline-2,4-diamine]	< 1000
Cc1cccc(CN2CCN(c3cccc4nc(N)nc(N)c34)CC2)c1F [Example-183, 5-[4-(2-Fluoro-3-methyl-benzyl)-piperazin-1-yl]-quinazoline-2,4-diamine]	< 1000
Nc1nc(N)c2c(N3CCN(Cc4ccc5ccccc5c4)CC3)cccc2n1 [Example-204, 5-(4-Naphthalen-2-ylmethyl-piperazin-1-yl)-quinazoline-2,4-diamine hydrochloride]	1000 to 5000
Nc1nc(N)c2c(N3CCNCC3)cccc2n1 [Example-220, 5-piperazin-1-ylquinazoline-2,4-diamine]	< 1000

Same assay, conditions: Mus musculus, Table 5, SMN2 promoter driving β-lactamase, read-out: Promoter Assay EC50

Structure (SMILES)	EC50 [nM]
CC(C)(C)OC(=O)N1CCN(CCOc2cccc3nc(N)nc(N)c23)CC1 [Examplc-205, 4-[2-(2,4-Diamino-quinazolin-5-yloxy)-ethyl]-piperazine-1-carboxylic Acid tert-butyl Ester]	< 1000

Same assay, conditions: Mus musculus, Table 6, SMN2 promoter driving β-lactamase, read-out: Promoter Assay EC50

Structure (SMILES)	EC50 [nM]
CC(C)(Oc1cccc2nc(N)nc(N)c12)C1CCN(Cc2c(Cl)cccc2Cl)CC1 [Example-224, 5-{1-[1-(2,6-Dichloro-benzyl)-piperidin-4-yl]-1-methyl-ethoxy}-quinazoline-2,4-diamine]	< 1000
CC(C)(Oc1cccc2nc(N)nc(N)c12)C1CCN(Cc2c(F)cccc2Cl)CC1 [Example-225, 5-{1-[1-(2-Chloro-6-fluoro-benzyl)-piperidin-4-yl]-1-methyl-ethoxy}-quinazoline-2,4-diamine]	< 1000
CC1CC(COc2cccc3nc(N)nc(N)c23)CC(C)N1Cc1ccccc1F (stereo not shown) [Example-226, 5-[1-(2-Fluoro-benzyl)-2,6-dimethyl-piperidin-4-ylmethoxy]-quinazoline-2,4-diamine]	< 1000
CC1CC(COc2cccc3nc(N)nc(N)c23)CC(C)N1Cc1c(F)cccc1Cl (stereo not shown) [Example-227, 5-[1-(2-Chloro-6-fluoro-benzyl)-2,6-dimethyl-piperidin-4-ylmethoxy]-quinazoline-2,4-diamine]	< 1000

Same assay, conditions: Table 1, SMN2 promoter driving β-lactamase, 12 point dose curve, read-out: Promoter Assay EC50

Structure (SMILES)	EC50 [nM]
CC(=O)Nc1nc(CN2CCC(COc3cccc4nc(N)nc(N)c34)CC2)cs1 [Example-094]	< 1000
Nc1nc(N)c2c(OCC3CCN(CC4COc5ccccc5O4)CC3)cccc2n1 (stereo not shown) [Example-096]	< 1000
Nc1nc(N)c2c(OCC3CCN(Cc4ccc(OC(F)(F)F)cc4)CC3)cccc2n1 [Example-102]	< 1000
Nc1nc(N)c2c(OCC3CCN(Cc4cccc(OC(F)(F)F)c4)CC3)cccc2n1 [Example-103]	< 1000
Nc1nc(N)c2c(OCC3CCN(Cc4ccc(Cl)cc4Cl)CC3)cccc2n1 [Example-104]	< 1000
Nc1nc(N)c2c(OCC3CCN(C(=O)c4ccc5c(c4)OCO5)CC3)cccc2n1 [Example-105]	< 1000
Nc1nc(N)c2c(OCC3CCN(C(=O)c4c(F)cccc4F)CC3)cccc2n1 [Example-107]	< 1000
Nc1nc(N)c2c(OCC3CCN(C(=O)c4c(Cl)cccc4Cl)CC3)cccc2n1 [Example-108]	< 1000
Nc1nc(N)c2c(OCC3CCN(C(=O)c4ccc(Cl)c(Cl)c4)CC3)cccc2n1 [Example-109]	< 1000
Nc1nc(N)c2c(OCC3CCN(C(=O)c4cccc(C(F)(F)F)c4F)CC3)cccc2n1 [Example-110]	< 1000
Nc1nc(N)c2c(OCC3CCN(S(=O)(=O)c4ccc(F)cc4)CC3)cccc2n1 [Example-111]	< 1000
COc1cccc(CN2CCC(COc3cccc4nc(N)nc(N)c34)CC2)c1 [Example-114]	< 1000
Nc1nc(N)c2c(OCC3CCN(Cc4cc(Cl)cc(Cl)c4)CC3)cccc2n1 [Example-116]	< 1000
Nc1nc(N)c2c(OCC3CCN(Cc4ccccn4)CC3)cccc2n1 [Example-118]	< 1000
Nc1nc(N)c2c(OCC3CCN(Cc4ccncc4)CC3)cccc2n1 [Example-119]	< 1000
COc1ccc(CN2CCC(COc3cccc4nc(N)nc(N)c34)CC2)cc1F [Example-122]	< 1000
Nc1nc(N)c2c(OCC3CCN(Cc4ccc(C(F)(F)F)cc4)CC3)cccc2n1 [Example-123]	< 1000
COc1ccc(CN2CCC(COc3cccc4nc(N)nc(N)c34)CC2)cc1 [Example-124]	< 1000
CC(C)(C)c1ccc(CN2CCC(COc3cccc4nc(N)nc(N)c34)CC2)cc1 [Example-129]	< 1000
Nc1nc(N)c2c(OCC3CCN(Cc4cccc(C(F)(F)F)c4)CC3)cccc2n1 [Example-130]	< 1000
Nc1nc(N)c2c(OCC3CCN(Cc4ccccc4C(F)(F)F)CC3)cccc2n1 [Example-131]	< 1000
Nc1nc(N)c2c(OCC3CCN(Cc4cccc(F)c4)CC3)cccc2n1 [Example-132]	< 1000
COc1cc(CN2CCC(COc3cccc4nc(N)nc(N)c34)CC2)cc(OC)c1 [Example-133]	< 1000
Nc1nc(N)c2c(OCC3CCN(Cc4cccs4)CC3)cccc2n1 [Example-135]	< 1000
Nc1nc(N)c2c(OCC3CCN(Cc4cc(F)cc(F)c4)CC3)cccc2n1 [Example-137]	< 1000
Nc1nc(N)c2c(OCC3CCN(Cc4ccsc4)CC3)cccc2n1 [Example-145]	< 1000
Cc1ccc(C)c(CN2CCC(COc3cccc4nc(N)nc(N)c34)CC2)c1 [Example-146]	< 1000
Nc1nc(N)c2c(OCC3CCN(Cc4cc(F)c(F)c(F)c4)CC3)cccc2n1 [Example-148]	< 1000
Nc1nc(N)c2c(OCC3CCN(Cc4ccc(F)cc4)CC3)cccc2n1 [Example-149]	< 1000
Cn1ccnc1CN1CCC(COc2cccc3nc(N)nc(N)c23)CC1 [Example-152]	1000 to 5000

Same assay, conditions: Table 3, SMN2 promoter driving β-lactamase, read-out: Promoter Assay EC50

Structure (SMILES)	EC50 [nM]
COC(=O)c1cccc(CN2CCC(COc3cccc4nc(N)nc(N)c34)CC2)c1 [Example-156]	< 1000
COC(=O)c1ccc(CN2CCC(COc3cccc4nc(N)nc(N)c34)CC2)cc1 [Example-157]	< 1000
